# Measured values: patent publication US20260284152A1, “COMPOSITION COMPRISING GV1001 FOR PREVENTING OR TREATING MACULAR DEGENERATION” (GEMVAX & KAEL CO., LTD., priority 2023, published 2026)
# Assays:
# [1] = tested on: retinal pigment epithelial cell line ARPE-19; assay: Reduction of reactive oxygen species (DCF-DA fluorescence) in H2O2-treated retinal pigment epithelial cells; format: cell-based
# Source text: (§1) Reactive oxygen species were generated by treating retinal pigment epithelial cell line ARPE-19 with hydrogen peroxide (H2O2).
# (§2) Degenerated retinal pigment epithelial cells that appear in age-related macular degeneration were set as a model cell line, and epithelial loss of retinal pigment epithelial cells was induced.
# Using DCF-DA as a reactive oxygen species dye sample, the change in the level of reactive oxygen species in retinal pigment epithelial cells (ARPE-19) induced by GV1001 was confirmed by fluorescence microscopy, and the results are shown in FIGS. 6A and 6B. DCF-DA fluorescence intensity increased when oxidative stress was induced by H2O2, but decreased by treatment with metformin, a positive control.
# [2] = tested on: retinal pigment epithelial cell line ARPE-19; assay: Reduction of epithelial-mesenchymal transition (cadherin 1 / vimentin, confocal microscope) in H2O2-treated retinal pigment epithelial cells; format: cell-based; details: ARPE-19, H2O2 50 μM
# Source text: as §1, §2
# The degree of epithelial-mesenchymal transition, which indicates degeneration of retinal pigment epithelial cells, was confirmed by observing changes in cadherin 1 as an epithelial cell marker, and vimentin as a mesenchymal cell marker, using a confocal microscope, and the results are shown in FIG. 7.
# [3] = tested on: C57BL/6 mice injected with NaIO3; assay: Short-term administration in NaIO3 mouse model of age-related macular degeneration (RPE/choroid flat mount, phalloidin); format: in vivo; details: NaIO3 20 mg/kg IV mice
# Source text: Mice injected with sodium iodate (NaIO3) are used as a representative model of age-related macular degeneration. A mouse model of age-related macular degeneration was established by injecting NaIO3 into C57BL/6 mice, thereby inducing oxidative stress specific to retinal pigment epithelial cells and causing damage.
# To determine whether the disruption of tight junctions in the retinal pigment epithelium caused by NaIO3 administration was inhibited by GV1001, the retinal pigment epithelium/choroid (RPE/choroid) was flat-mounted, and the junctions between epithelial cells were stained with phalloidin samples and observed using a confocal microscope.
# To determine whether the disruption of tight junctions in the retinal pigment epithelial cell layer was inhibited by GV1001, the retinal pigment epithelial layer/choroid was flat-mounted, and the junctions between epithelial cells were stained with phalloidin and observed using a confocal microscope.
# [4] = tested on: C57BL/6 mice injected with NaIO3; assay: Long-term administration in NaIO3 mouse model of age-related macular degeneration (RPE/choroid flat mount, phalloidin); format: in vivo; details: NaIO3 20 mg/kg IV mice; for Tight junction structure of the retinal pigment epithelium: long-term post-treatment; for Tight junction structure of the retinal pigment epithelial layer: long-term pre-treatment
# Source text: A mouse model of age-related macular degeneration was established by injecting […] into C57BL/6 mice and inducing oxidative stress specifically in retinal pigment epithelial cells to cause damage.
# The GV1001 dose determined through an efficacy evaluation test by short-term administration was used for efficacy evaluation in long-term administration.
# The animal experimental group for verification of efficacy in reducing retinal pigment epithelial degeneration by long-term administration (3 months) of GV1001 was set up as shown in Table 4 below.
# To determine whether the disruption of tight junctions in the retinal pigment epithelium was inhibited by GV1001, the retinal pigment epithelium/choroid was flat-mounted, and the junctions between epithelial cells were stained with phalloidin-stained samples and observed using a confocal microscope to determine the degree of disruption of tight junctions.
# To determine whether the disruption of the tight junctions in the retinal pigment epithelium was reduced by long-term GV1001 administration, the retinal pigment epithelium/choroid was flat-mounted, and the junctions between epithelial cells were stained with phalloidin and observed using a confocal microscope.
compound,measurement,setting,value
"CN(C)C(=N)N=C(N)N [metformin, reference compound]",DCF-DA fluorescence intensity (reactive oxygen species),"[1]; ARPE-19, H2O2 50 μM oxidative stress, metformin 1 mM positive control",decreased
same,"Epithelial-mesenchymal transition (cadherin 1, vimentin)",[2]; metformin 1 mM positive control,reduced
same,Tight junction structure of the retinal pigment epithelial cell layer,[3]; metformin 4 mg/mL in drinking water for 7 days before NaIO3,maintained
"GV1001: A peptide consisting of 16 amino acids, having the amino acid sequence of SEQ ID NO: 1, derived from human telomerase (EARPALLTSRLRFIPK; UniProt O14746 611-626, looked up, fragment)",DCF-DA fluorescence intensity (reactive oxygen species),"[1]; ARPE-19, H2O2 50 μM, post-treatment (2 h after 24 h H2O2), 0.1 μM",decreased
same,DCF-DA fluorescence intensity (reactive oxygen species),"[1]; ARPE-19, H2O2 50 μM, post-treatment (2 h after 24 h H2O2), 10 μM",decreased
same,DCF-DA fluorescence intensity (reactive oxygen species),"[1]; ARPE-19, H2O2 50 μM, pre-treatment (2 h before 24 h H2O2), 0.01 μM",decreased
same,"Epithelial-mesenchymal transition (cadherin 1, vimentin)","[2]; post-treatment, 10 μM",reduced
same,"Epithelial-mesenchymal transition (cadherin 1, vimentin)","[2]; pre-treatment, 0.01 μM",reduced
same,Tight junction structure of the retinal pigment epithelial cell layer,"[3]; short-term post-treatment, 0.5 mg/kg SC three times within one week from 10 days after NaIO3",maintained
same,Tight junction structure of the retinal pigment epithelial cell layer,"[3]; short-term post-treatment, 1.0 mg/kg SC three times within one week from 10 days after NaIO3",maintained
same,Tight junction structure of the retinal pigment epithelial cell layer,"[3]; short-term pre-treatment, 0.1 mg/kg SC three times a week for two weeks",maintained
same,Tight junction structure of the retinal pigment epithelium,[4]; 0.1 mg/kg SC three times a week for 10 weeks,well maintained
same,Tight junction structure of the retinal pigment epithelium,[4]; 1.0 mg/kg SC three times a week for 10 weeks,well maintained
same,Tight junction structure of the retinal pigment epithelial layer,[4]; 0.1 mg/kg SC three times a week for 12 weeks,well maintained
same,Tight junction structure of the retinal pigment epithelial layer,[4]; 1.0 mg/kg SC three times a week for 12 weeks,well maintained
